Measured values taken from patent US20250114460A1, “NOVEL PLK1 DEGRADATION INDUCING COMPOUND” (UPPTHERA, INC., priority 2021, published 2025).

Target: T1, PLK1 (Homo sapiens, UniProt P53350)
T1 construct: endogenous in cells; host or cells: HeLa LgBit (Plk1-HiBit KI): HeLa stably expressing LgBit, with a CRISPR/Cas9 knock-in of HiBit at the endogenous PLK1 locus
Experiment: Luciferase assay for PLK1 in HeLa LgBit (Plk1-HiBit KI) cell line
Type: cell-based
Conditions: 300 nM compound, luminescence after 9 hours
Procedure: 2. Luciferase Assay for PLK1
(1) Preparation and Culture of HeLa LgBit (Plk1-HiBit KI) Cell Line
A HeLa cell line in which the LgBit vector was transfected and expressed stably was prepared. Then, after constructing gRNA and donor to express the HiBit amino acid sequence behind the C-terminal of the Plk1 gene, which was inherent in the cell, it was inserted into the cell together with a vector capable of expressing CRISPR/Cas9. Only the cells in which the insertion was completed and knock-in had progressed were selected, sub-cultured and used.
(2) Treatment of Compounds of the Present Invention and Method of Luciferase Assay
In the case of HeLa LgBit (Plk1-HiBit KI), the compounds were treated after being released after thymidine block, and the process was as follows. Thymidine (Sigma-Aldrich Cat. No. T9250-5G) was completely dissolved in DW and used in the experiment. For thymidine block, the products were treated with 2 mM of thymidine and then incubated for 24 hours. For release and chemical treatment, the medium was suctioned and washed with 1×PBS. TrypLE™ was added and incubated in 37° C. CO2 incubator for 5 min. Cells neutralized by adding complete media were counted through a counter. For each well of a 96-well culture plate (SPL), 3.3×10^4 cells and a total medium volume of 150 μL were seeded and incubated in a CO2 incubator.
Each cell line was incubated in a CO2 incubator for 18 hours, and Endurazine was added to each well to make up 4% of the total volume. After adding the compound of the present invention in a 96-well white plate (SPL) to a concentration of 300 nM, the wavelength of the plate reader (BMG Labtech, CLARIOstar Plus) was set to […], and then the luminescence was tracked in real time.
In Table 2, Activity represents the ratio of the luminescense value of each Exemplary Compound treatment group to DMSO treatment group (+++: <0.3, ++<0.6, +<0.7).

T1 sequence (P53350 whole entry): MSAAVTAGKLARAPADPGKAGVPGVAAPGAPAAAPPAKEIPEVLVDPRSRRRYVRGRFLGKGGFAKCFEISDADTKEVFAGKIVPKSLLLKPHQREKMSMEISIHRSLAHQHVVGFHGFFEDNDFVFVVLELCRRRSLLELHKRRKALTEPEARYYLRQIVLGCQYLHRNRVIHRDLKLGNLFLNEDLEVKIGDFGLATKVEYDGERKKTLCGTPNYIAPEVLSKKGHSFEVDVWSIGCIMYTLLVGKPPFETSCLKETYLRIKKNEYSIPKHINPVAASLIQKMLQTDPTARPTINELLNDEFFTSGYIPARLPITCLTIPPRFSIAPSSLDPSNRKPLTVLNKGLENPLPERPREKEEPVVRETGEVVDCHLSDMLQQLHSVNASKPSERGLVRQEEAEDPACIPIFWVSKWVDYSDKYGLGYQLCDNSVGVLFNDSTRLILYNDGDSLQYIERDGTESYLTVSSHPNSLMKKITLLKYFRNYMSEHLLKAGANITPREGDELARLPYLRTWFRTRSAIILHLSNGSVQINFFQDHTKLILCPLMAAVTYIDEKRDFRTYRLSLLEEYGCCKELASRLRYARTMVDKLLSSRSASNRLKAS

Structure (SMILES) | Activity: ratio of the luminescense value of each Exemplary Compound treatment group to DMSO treatment group
COc1cc(C(=O)N[C@H]2CC[C@@H](N(C)CCCNc3cccc4c3C(=O)N(C3CCC(=O)NC3=O)C4=O)CC2)ccc1Nc1ncc2c(n1)N(C1CCCC1)CC(F)(F)C(=O)N2C (some centres unmarked) [Compound 16, 4-((9-cyclopentyl-7,7-difluoro-5-methyl-6-oxo-6,7,8,9-tetrahydro-5H-pyrimido[4,5-b][1,4]diazepin-2-yl)amino)-N-((1s,4s)-4-((3-((2-(2,6-dioxopiperidin-3-yl)-1,3-dioxoisoindolin-4-yl)amino)propyl)(methyl)amino)cyclohexyl)-3-methoxybenzamide] | + (+<0.7)
COc1cc(C(=O)NC2CCN(CC3CCN(c4cccc5c4C(=O)N(C4CCC(=O)NC4=O)C5=O)C3)CC2)ccc1Nc1ncc2c(n1)N(C1CCCC1)CC(F)(F)C(=O)N2C (centres unmarked) [Compound 46, 4-((9-cyclopentyl-7,7-difluoro-5-methyl-6-oxo-6,7,8,9-tetrahydro-5H-pyrimido[4,5-b][1,4]diazepin-2-yl)amino)-N-(1-((1-(2-(2,6-dioxopiperidin-3-yl)-1,3-dioxoisoindolin-4-yl)pyrrolidin-3-yl)methyl)piperidin-4-yl)-3-methoxybenzamide] | ++ (++<0.6)
COc1cc(C(=O)NC2CCC(N3CCN(CCOCCNc4ccc5c(c4)C(=O)N(C4CCC(=O)NC4=O)C5=O)CC3)CC2)c(F)cc1Nc1ncc2c(n1)N(C1CCCC1)CC(F)(F)C(=O)N2C (centres unmarked) [Compound 193, 4-((9-cyclopentyl-7,7-difluoro-5-methyl-6-oxo-6,7,8,9-tetrahydro-5H-pyrimido[4,5-b][1,4]diazepin-2-yl)amino)-N-((1r,4r)-4-(4-(2-(2-((2-(2,6-dioxopiperidin-3-yl)-1,3-dioxoisoindolin-5-yl)amino)ethoxy)ethyl)piperazin-1-yl)cyclohexyl)-2-fluoro-5-methoxybenzamide] | ++ (++<0.6)
COc1cc(C(=O)N2CCN(CCCNc3ccc4c(c3)C(=O)N(C3CCC(=O)NC3=O)C4=O)CC2)c(F)cc1Nc1ncc2c(n1)N(C1CCCC1)CC(F)(F)C(=O)N2C (centres unmarked) [Compound 186, 5-((3-(4-(4-((9-cyclopentyl-7,7-difluoro-5-methyl-6-oxo-6,7,8,9-tetrahydro-5H-pyrimido[4,5-b][1,4]diazepin-2-yl)amino)-2-fluoro-5-methoxybenzoyl)piperazin-1-yl)propyl)amino)-2-(2,6-dioxopiperidin-3-yl)isoindoline-1,3-dione] | ++ (++<0.6)
CN1C(=O)C(F)(F)CN(C2CCCC2)c2nc(Nc3ccc(C(=O)NC4CCN(C(=O)CCCNc5cccc6c5C(=O)N(C5CCC(=O)NC5=O)C6=O)CC4)cc3F)ncc21 (centres unmarked) [Compound 27, 4-((9-cyclopentyl-7,7-difluoro-5-methyl-6-oxo-6,7,8,9-tetrahydro-5H-pyrimido[4,5-b][1,4]diazepin-2-yl)amino)-N-(1-(4-((2-(2,6-dioxopiperidin-3-yl)-1,3-dioxoisoindolin-4-yl)amino)butanoyl)piperidin-4-yl)-3-fluorobenzamide] | ++ (++<0.6)
COc1cc(C(=O)NC2CCN(C(=O)CCNc3cccc4c3C(=O)N(C3CCC(=O)NC3=O)C4=O)CC2)c(F)cc1Nc1ncc2c(n1)N(C1CCCC1)CC(F)(F)C(=O)N2C (centres unmarked) [Compound 24, 4-((9-cyclopentyl-7,7-difluoro-5-methyl-6-oxo-6,7,8,9-tetrahydro-5H-pyrimido[4,5-b][1,4]diazepin-2-yl)amino)-N-(1-(3-((2-(2,6-dioxopiperidin-3-yl)-1,3-dioxoisoindolin-4-yl)amino)propanoyl)piperidin-4-yl)-2-fluoro-5-methoxybenzamide] | + (+<0.7)

Second part, the compound after the results:

Activity: ratio of the luminescense value of each Exemplary Compound treatment group to DMSO treatment group | Structure (SMILES)
++ (++<0.6) | C=CC[C@H]1CN(C2CCCC2)c2nc(Nc3ccc(C(=O)NC4CCN(C(=O)CCN5CCN(c6cccc7c6C(=O)N(C6CCC(=O)NC6=O)C7=O)CC5)CC4)cc3OC)ncc2N(C)C1=O (single isomer, unassigned) [Compound 70, 4-((7-allyl-9-cyclopentyl-5-methyl-6-oxo-6,7,8,9-tetrahydro-5H-pyrimido[4,5-b][1, 4]diazepin-2-yl)amino)-N-(1-(3-(4-(2-(2,6-dioxopiperidin-3-yl)-1,3-dioxoisoindolin-4-yl)piperazin-1-yl)propanoyl)piperidin-4-yl)-3-methoxybenzamide]
+ (+<0.7) | COc1cc(C(=O)NN2CCN(C3CN(c4cccc5c4C(=O)N(C4CCC(=O)NC4=O)C5=O)C3)CC2)ccc1Nc1ncc2c(n1)N(C1CCCC1)CC(F)(F)C(=O)N2C (centres unmarked) [Compound 200, 4-((9-cyclopentyl-7,7-difluoro-5-methyl-6-oxo-6,7,8,9-tetrahydro-5H-pyrimido[4,5-b][1,4]diazepin-2-yl)amino)-N-(4-(1-(2-(2,6-dioxopiperidin-3-yl)-1,3-dioxoisoindolin-4-yl)azetidin-3-yl)piperazin-1-yl)-3-methoxybenzamide]
++ (++<0.6) | COc1cc(C(=O)NC2CCN(C(=O)CCN3CCN(c4ccc5c(c4)CN(C4CCC(=O)NC4=O)C5=O)CC3)CC2)c(F)cc1Nc1ncc2c(n1)N(C1CCCC1)CC(F)(F)C(=O)N2C (centres unmarked) [Compound 61, 4-((9-cyclopentyl-7,7-difluoro-5-methyl-6-oxo-6,7,8,9-tetrahydro-5H-pyrimido[4,5-b][1,4]diazepin-2-yl)amino)-N-(1-(3-(4-(2-(2,6-dioxopiperidin-3-yl)-1-oxoisoindolin-5-yl)piperazin-1-yl)propanoyl)piperidin-4-yl)-2-fluoro-5-methoxybenzamide]
++ (++<0.6) | COc1cc(C(=O)N2CCC(CCCCN3CCN(c4ccc5c(c4)C(=O)N(C4CCC(=O)NC4=O)C5=O)CC3)CC2)ccc1Nc1ncc2c(n1)N(C1CCCC1)CC(F)(F)C(=O)N2C (centres unmarked) [Compound 100, 5-(4-(4-(1-(4-((9-cyclopentyl-7,7-difluoro-5-methyl-6-oxo-6,7,8,9-tetrahydro-5H-pyrimido[4,5-b][1,4]diazepin-2-yl)amino)-3-methoxybenzoyl)piperidin-4-yl)butyl)piperazin-1-yl)-2-(2,6-dioxopiperidin-3-yl)isoindoline-1,3-dione]
++ (++<0.6) | COc1cc(C(=O)NC2CCN(CCSc3cccc4c3C(=O)N(C3CCC(=O)NC3=O)C4=O)CC2)c(F)cc1Nc1ncc2c(n1)N(C1CCCC1)CC(F)(F)C(=O)N2C (centres unmarked) [Compound 11, 4-((9-cyclopentyl-7,7-difluoro-5-methyl-6-oxo-6,7,8,9-tetrahydro-5H-pyrimido[4,5-b][1,4]diazepin-2-yl)amino)-N-(1-(2-((2-(2,6-dioxopiperidin-3-yl)-1,3-dioxoisoindolin-4-yl)thio)ethyl)piperidin-4-yl)-2-fluoro-5-methoxybenzamide]
